Measured values as given in PubChem BioAssay (NCI).
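Values below derive from 48-hour exposures of cells grown in 96-well plates, with endpoints linearly interpolated between the two concentrations bracketing the appropriate inhibition level. GI50 marks 50% less growth. Definition used: TGI = concentration required for complete inhibition of growth.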

What was measured:
Experiment in all cases: NCI-60 cell line screen, 48 h
BT-549 breast = tested on: BT-549 breast
DU-145 prostate = tested on: DU-145 prostate
PC-3 prostate = tested on: PC-3 prostate
MDA-MB-231 breast = tested on: MDA-MB-231 breast
T-47D breast = tested on: T-47D breast
HS 578T breast = tested on: HS 578T breast
MCF7 breast = tested on: MCF7 breast
SNB-78 CNS = tested on: SNB-78 CNS
DLD-1 colon = tested on: DLD-1 colon

Compound | GI50 (BT-549 breast) [µM] | TGI (BT-549 breast) [µM] | GI50 (DU-145 prostate) [µM] | TGI (DU-145 prostate) [µM] | GI50 (PC-3 prostate) [µM] | TGI (PC-3 prostate) [µM] | GI50 (MDA-MB-231 breast) [µM] | TGI (MDA-MB-231 breast) [µM] | GI50 (T-47D breast) [µM] | TGI (T-47D breast) [µM] | GI50 (HS 578T breast) [µM] | TGI (HS 578T breast) [µM] | GI50 (MCF7 breast) [µM] | TGI (MCF7 breast) [µM] | TGI (SNB-78 CNS) [µM] | TGI (DLD-1 colon) [µM]
Cc1ccc(C(C)C)cc1NC(=O)Nc1ccc([N+](=O)[O-])cc1 | 2.13 | 8.21 | 2.49 | 12 | 2.75 | 12.2 | 1.52 | 3.65 | 1.99 | 7.36 | 1.66 | 5.18 | 1.95 | 5.72 |  | 
CCOP(=O)(Nc1ccc2oc(=O)c3ccccc3c2c1)OCC |  | > 100 |  | > 100 |  | > 100 |  | > 100 |  | > 100 |  | > 100 |  | > 100 |  | 
Cc1nc(N)nc2ccccc12 |  | > 100 |  | > 100 |  | > 100 |  | > 100 |  | > 100 |  | > 100 |  | > 100 |  | 
Cc1cc(Cl)ccc1NS(=O)(=O)c1ccc(-c2cnc(C3CC3)o2)cc1 | 1.32 | 15.5 | 0.395 | 17.9 | 0.254 | 13.8 | 0.94 | 20 | 0.369 | 42.4 | 0.275 | 22.2 | 0.0619 | 14.7 |  | 
Oc1[nH]c2cc(Cl)ccc2c1/C=c1/ccc2c(c1)N=C(c1cc(F)cc(F)c1)N=2 | 2.1 | 10 | 1.98 | 4.45 | 2.12 | 8.5 | 2.78 | 12.3 | 4.27 | 17.7 | 1.55 | 10.2 | 1.62 | 11.3 |  | 
COc1nc(NC2OC(COC(C)=O)C(OC(C)=O)C(OC(C)=O)C2OC(C)=O)c(-c2csc(N)n2)c(=O)n1C (centres undefined) |  |  |  |  |  |  |  |  |  |  |  |  |  |  | > 100 | > 100
O=C(Cc1csc2nc(-c3ccc(Br)cc3)cn12)N/N=C/c1ccc(O)cc1 | 13.4 | 56.5 | 22.4 | 87.4 |  | 23.7 | 10.4 | 43.2 | 31.8 | > 100 | 23.7 | 92.3 | 62.7 | > 100 |  | 
CC(=O)Oc1ccc2c(c1)CC[C@@H]1C2CC[C@]2(C)C(=O)NC(=O)CC12 (some centres undefined) |  | > 100 |  | > 100 |  | > 100 |  | > 100 |  | > 100 |  | > 100 |  | > 100 |  | 
Cc1cc(C(O)CN(C)C)cc2c1ccc1cc(C(C)C)ccc12 (centres undefined) | 5.67 | 19.5 | 2.19 | 4.08 | 2.24 | 5.77 | 1.64 | 3.55 | 2.04 | 4.48 | 2.58 | 8.92 | 1.71 | 3.19 |  | 
COc1cccc(/C=C/C(=O)c2cc3c(N)c(C(=O)Nc4cccc5ccccc45)sc3nc2C)c1 | 1.2 | 3.88 | 1.14 | 2.86 | 1.48 | 6.22 | 1.22 | 3.26 | 1.22 | 4.45 |  |  | 0.339 | > 50 |  | 
C=[CH][Sn]([CH]=C)([O]c1cccc2cccnc12)[O]c1cccc2cccnc12 | 2.78 | 31.5 | 7.29 | 23.2 | 3.85 | 29.7 | 11.9 | 36.9 |  |  |  |  | 3.11 | 12.6 |  | 
Oc1ccc(Cl)cc1Cc1cc(Cl)ccc1O | 2.6 | 8.76 | 3.81 | 13.8 | 3.17 | 11.6 | 1.65 | 5.01 | 2.18 | 7.3 | 1.91 | 7.35 | 2.97 | 10.2 |  | 
C/C=C1\C(=O)OC2CCN3CCC(COC(=O)C(C)(O)C(C)C1O)C23 (centres undefined) |  | > 100 |  | > 100 |  | > 100 |  | > 100 |  | > 100 |  | > 100 |  | > 100 |  | 
CC1(C)OC2C(COS(N)(=O)=O)SC(n3cnc4cncnc43)C2O1 (centres undefined) | > 100 | > 100 | > 100 | > 100 | > 100 | > 100 | > 100 | > 100 | > 100 | > 100 | > 100 | > 100 | > 100 | > 100 |  | 
CC1CCC2N(C1)CC1C3(O)CC45OC6(O)C(O)CCC4(C)C6CCC5C3(O)CC(O)C1(O)C2(C)O (centres undefined) |  | > 100 |  | > 100 |  | > 100 |  | > 100 |  | > 100 |  | > 100 |  | > 100 |  | 
COc1cnc2cc(C(=O)O)c3ccccc3c2c1 |  |  |  | > 100 |  | > 100 |  | > 100 |  | > 100 |  | > 100 |  | > 100 |  | 
C#CCN(Cc1ccc2nc(N)[nH]c(=O)c2c1)c1ccc(C(=O)NC(CCC(=O)O)C(=O)O)cc1 (centres undefined) |  | > 100 |  | > 100 |  | > 100 |  | > 100 |  | > 100 |  |  |  | > 100 |  | 
N#CC1C=Cc2ccccc2N1C(=O)Oc1ccccc1 (centres undefined) |  | > 100 |  | 93.8 |  | > 100 |  | > 100 |  | > 100 |  | > 100 |  | > 100 |  | 
O=C(Cc1ccccc1)NN1C(=O)/C(=C\c2ccc(O)cc2)SC1=Nc1ccccc1 |  | > 100 |  | > 100 |  |  |  | > 100 |  | > 100 |  | > 100 |  | > 100 |  | 
CC1(C)CC[C@]2(C(N)=O)CC[C@]3(C)C(=CC[C@@H]4[C@@]5(C)C/C(=C/c6ccncc6)C(=O)C(C)(C)[C@@H]5CC[C@]43C)[C@@H]2C1 |  |  | 2.91 | 7.85 | 1.37 | 3.51 | 1.86 | 4.15 | 2.55 | 12.4 | 3.07 | > 100 | 2.52 | 10.5 |  | 
COC(=O)/C(=N\NC(N)=S)C(C#N)c1ccccc1 (centres undefined) |  |  |  |  |  |  |  |  |  |  |  |  |  |  | > 100 | > 100
COc1cc([N+](=O)[O-])c2ncccc2c1[N+](=O)[O-] | 7.62 | 20.2 | 4.39 | 15.8 | 4.18 | 17 | 11.6 | 24.8 | 3.1 | 11.7 | 3.87 | 29.4 | 3.26 | 32.1 |  | 
